Results on 27 compounds are retold here after doi:10.1101/2024.09.13.612887 (2024).

Bounds are passed on as bounds.

The first experiment concerns S. ondontolytica ZTP riboswitch used for crystallography (64-nt) (RNA, riboswitch, 5'-hydroxyl (hammerhead-cleaved, lacks 5'-phosphate)) GGGUCGUGACUGGCGAACAGGUGGGAAACCACCGGGGAGCGACCCUUGCCGCCCGCCUGGGCAA
In words: X-ray crystallography. The settings on record: Mg2+; co-crystal structure, 2.2 Å, partially refined.
Take `NC(=O)c1ncn(-c2cnc3ncccc3c2)c1N`: the binding result was “yes”.

The same experiment, now with this note: Mg2+; co-crystal structure, 2.4 Å.
For the compound `NC(=O)c1ncn(-c2cccnc2)c1N`, the binding entry is given as “yes”.

For another experiment, the system named is F. ulcerans ZTP riboswitch SPR construct RNA (RNA, riboswitch) UAUCAGUUAUAUGACUGACGGAACGUGGAAUUAACCACAUGAAGUAUAACGAUGACAAUGCCGACCGUCUGGGCGUUCAUUAGCGGUAUUCCGGAAC …. Description: SPR. The settings on record: 150 mM KCl, 10 mM MgCl2; 50 mM HEPES-KOH pH 7.4, 0.005% Tween-20, 5% DMSO; apparent, no saturation, exceeds 1:1 Rmax.
Consider `NC(=O)c1ncn(-c2ccc(-c3cnc[nH]3)cc2)c1N`, for which the KD is ~ 900 nM.

The next experiment relates to F. ulcerans ZTP riboswitch ITC construct RNA (aptamer domain) (RNA, riboswitch) UAUCAGUUAUAUGACUGACGGAACGUGGAAUUAACCACAUGAAGUAUAACGAUGACAAUGCCGACCGUCUGGGCG
In words: ITC. To be noted: 150 mM KCl, 10 mM MgCl2; 50 mM HEPES-KOH pH 7.4, 37 °C; table value, text b16 says KD >30 μM.
Regarding `COc1ccncc1-n1cnc(C(N)=O)c1N`, the KD was 4.16 ± 0.68 µM.

Staying with this experiment, now noted: 150 mM KCl, 10 mM MgCl2; 50 mM HEPES-KOH pH 7.4, up to 3% DMSO, 37 °C.
Compound `NC(=O)c1ncn(-c2ccc3ncccc3c2)c1N` returned a KD of 1.28 ± 0.26 µM.

For `NC(=O)c1ncn(-c2ccc(Cl)nc2)c1N`, the KD was 2.19 ± 1.4 µM.

Compound `NC(=O)c1ncn(-c2ccc(NCc3ccccc3)nc2)c1N` registered a KD of 13.8 ± 1.5 µM.

`NC(=O)c1ncn(-c2ccc3[nH]ccc3c2)c1N` yielded a KD of 3.20 ± 1.3 µM.

With `COc1ccc(-n2cnc(C(N)=O)c2N)cn1`, the KD is 2.45 ± 0.44 µM.

For `NC(=O)c1ncn(-c2cncnc2)c1N`, the KD was found to be 1.22 ± 0.45 µM.

`NC(=O)c1ncn(-c2ccc3cc[nH]c3c2)c1N` registered a KD of 4.99 ± 0.64 µM.

Consider `NC(=O)c1ncn(-c2ccc3cccnc3c2)c1N`, for which the KD came to 1.36 ± 0.17 µM.

As for `NC(=O)c1cccc(-n2cnc(C(N)=O)c2N)c1`, the KD was determined as 3.52 ± 0.60 µM.

The compound `NC(=O)c1ncn(-c2cnc3ncccc3c2)c1N` displayed a KD of 0.778 ± 0.28 µM.

On to `NC(=O)c1ncn(Cc2ccncc2)c1N`, for which the KD is 15.0 ± 7.1 µM.

On to `NC(=O)c1ncn(-c2ccccc2)c1N`, for which the KD amounted to 1.84 ± 0.41 µM.

On to `NC(=O)c1ncn(-c2ccc(-c3ncc[nH]3)nc2)c1N`, for which the KD turned out to be 3.18 ± 0.44 µM.

As for `NC(=O)c1ncn(-c2cnc3cccnc3c2)c1N`, the KD was found to be 0.864 ± 0.21 µM.

`CNc1ccc(-n2cnc(C(N)=O)c2N)cn1` yielded a KD of 2.40 ± 0.36 µM.

`NC(=O)c1ncn(-c2cccc(O)c2)c1N` showed a KD of 2.47 ± 0.37 µM.

`NC(=O)c1ncn(-c2ccc(-c3cnc[nH]3)cc2)c1N` had a KD of 1.46 ± 0.21 µM.

Staying with this experiment, now noted: 150 mM KCl, 10 mM MgCl2; 50 mM HEPES-KOH pH 7.4, up to 3% DMSO, 37 °C; N.B. (>30 μM or not measurable).
For `NC(=O)c1cn(-c2ccncc2)cn1`, the KD was greater than 30 µM.

Consider `NC(=O)c1ncn([C@@H]2CCCNC2)c1N`, for which the KD was greater than 30 µM.

Regarding `NC(=O)c1ncn([C@H]2CCCNC2)c1N`, the KD was greater than 30 µM.

Consider `NC(=O)c1ncn(Cc2cnccn2)c1N`, for which the KD was greater than 30 µM.

On to `NC(=O)c1ncn(-c2cccc3cccnc23)c1N`, for which the KD is greater than 30 µM.

`NC(=O)c1ncn(Cc2ccccc2)c1N`: the KD is greater than 30 µM.

Regarding `Cc1ncccc1-n1cnc(C(N)=O)c1N`, the KD was greater than 30 µM.

Staying with this experiment, now noted: 150 mM KCl, 10 mM MgCl2; 50 mM HEPES-KOH pH 7.4, up to 3% DMSO, 37 °C; text prints 13.7 ± 7.8.
For `NC(=O)c1nnn(-c2cccnc2)c1N`, the KD worked out at 13.5 ± 7.85 µM.
